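In this assay, cells in 96-well plates receive the compound at five concentrations for 48 hours. Endpoints are linearly interpolated between the surrounding concentrations. TGI denotes the concentration required for complete inhibition of growth.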
Columns and labels:
Experiment in all cases: NCI tumour cell line growth inhibition, 48 h
SN12K1 renal = system: SN12K1 renal
MCF7 breast = system: MCF7 breast
K-562 leukemia = system: K-562 leukemia
HOP-62 NSCLC = system: HOP-62 NSCLC
KM12 colon = system: KM12 colon
NCI/ADR-RES ovarian = system: NCI/ADR-RES ovarian
A498 renal = system: A498 renal
P388 leukemia = system: P388 leukemia
OVCAR-5 ovarian = system: OVCAR-5 ovarian
EKVX NSCLC = system: EKVX NSCLC
RPMI-8226 leukemia = system: RPMI-8226 leukemia
DLD-1 colon = system: DLD-1 colon
OVCAR-4 ovarian = system: OVCAR-4 ovarian
XF 498 CNS = system: XF 498 CNS
SNB-19 CNS = system: SNB-19 CNS
HCC-2998 colon = system: HCC-2998 colon
M19-MEL melanoma = system: M19-MEL melanoma
CCRF-CEM leukemia = system: CCRF-CEM leukemia
NCI-H23 lung = system: NCI-H23 lung
U251 CNS = system: U251 CNS
CAKI-1 renal = system: CAKI-1 renal
MOLT-4 leukemia = system: MOLT-4 leukemia
UACC-257 melanoma = system: UACC-257 melanoma
IGROV1 ovarian = system: IGROV1 ovarian
HL-60(TB) leukemia = system: HL-60(TB) leukemia
NCI-H460 lung = system: NCI-H460 lung
SN12C renal = system: SN12C renal
OVCAR-3 ovarian = system: OVCAR-3 ovarian
SF-539 CNS = system: SF-539 CNS
NCI-H226 lung = system: NCI-H226 lung
LOX IMVI melanoma = system: LOX IMVI melanoma
OVCAR-8 ovarian = system: OVCAR-8 ovarian
HOP-92 NSCLC = system: HOP-92 NSCLC
HOP-18 NSCLC = system: HOP-18 NSCLC
P388/ADR leukemia = system: P388/ADR leukemia
SNB-78 CNS = system: SNB-78 CNS
SK-MEL-5 melanoma = system: SK-MEL-5 melanoma
SK-MEL-2 melanoma = system: SK-MEL-2 melanoma
SK-MEL-28 melanoma = system: SK-MEL-28 melanoma
KM20L2 colon = system: KM20L2 colon
SNB-75 CNS = system: SNB-75 CNS
A549 NSCLC = system: A549 NSCLC
SW-620 colon = system: SW-620 colon
SF-295 CNS = system: SF-295 CNS
SK-OV-3 ovarian = system: SK-OV-3 ovarian
DMS 114 small cell lung = system: DMS 114 small cell lung
HCT-15 colon = system: HCT-15 colon
MALME-3M melanoma = system: MALME-3M melanoma
SF-268 CNS = system: SF-268 CNS
DMS 273 small cell lung = system: DMS 273 small cell lung
HT29 colon = system: HT29 colon
UO-31 renal = system: UO-31 renal
UACC-62 melanoma = system: UACC-62 melanoma
NCI-H522 lung = system: NCI-H522 lung
COLO 205 colon = system: COLO 205 colon
HCT-116 colon = system: HCT-116 colon
TK-10 renal = system: TK-10 renal
RXF-631 renal = system: RXF-631 renal
ACHN renal = system: ACHN renal
M14 melanoma = system: M14 melanoma
RXF 393 renal = system: RXF 393 renal
786-0 renal = system: 786-0 renal
LXFL 529 NSCLC = system: LXFL 529 NSCLC
SR leukemia = system: SR leukemia

## COc1ccc(/C=C2\CCNC2=O)cc1
SN12K1 renal
  TGI: > 100 µM
MCF7 breast
  TGI: > 100 µM
K-562 leukemia
  TGI: > 100 µM
HOP-62 NSCLC
  TGI: > 100 µM
KM12 colon
  TGI: > 100 µM
NCI/ADR-RES ovarian
  TGI: > 100 µM
A498 renal
  TGI: > 100 µM
P388 leukemia
  TGI: > 100 µM
OVCAR-5 ovarian
  TGI: > 100 µM
EKVX NSCLC
  TGI: > 80.9 µM
RPMI-8226 leukemia
  TGI: > 100 µM
DLD-1 colon
  TGI: > 100 µM
OVCAR-4 ovarian
  TGI: > 100 µM
XF 498 CNS
  TGI: > 100 µM
SNB-19 CNS
  TGI: > 100 µM
HCC-2998 colon
  TGI: > 100 µM
M19-MEL melanoma
  TGI: > 100 µM
CCRF-CEM leukemia
  TGI: > 100 µM
NCI-H23 lung
  TGI: > 100 µM
U251 CNS
  TGI: > 100 µM
CAKI-1 renal
  TGI: > 100 µM
MOLT-4 leukemia
  TGI: > 100 µM
UACC-257 melanoma
  TGI: > 100 µM
IGROV1 ovarian
  TGI: > 100 µM
HL-60(TB) leukemia
  TGI: > 100 µM
NCI-H460 lung
  TGI: > 100 µM
SN12C renal
  TGI: > 100 µM
OVCAR-3 ovarian
  TGI: > 100 µM
SF-539 CNS
  TGI: > 100 µM
NCI-H226 lung
  TGI: > 100 µM
LOX IMVI melanoma
  TGI: > 100 µM
OVCAR-8 ovarian
  TGI: > 100 µM
HOP-92 NSCLC
  TGI: > 100 µM
HOP-18 NSCLC
  TGI: > 100 µM
P388/ADR leukemia
  TGI: > 100 µM
SNB-78 CNS
  TGI: > 100 µM
SK-MEL-5 melanoma
  TGI: > 100 µM
SK-MEL-2 melanoma
  TGI: > 100 µM
SK-MEL-28 melanoma
  TGI: > 100 µM
KM20L2 colon
  TGI: > 100 µM
SNB-75 CNS
  TGI: > 79.5 µM
A549 NSCLC
  TGI: > 100 µM
SW-620 colon
  TGI: > 100 µM
SF-295 CNS
  TGI: > 100 µM
SK-OV-3 ovarian
  TGI: > 100 µM
DMS 114 small cell lung
  TGI: > 100 µM
HCT-15 colon
  TGI: > 100 µM
MALME-3M melanoma
  TGI: > 100 µM
SF-268 CNS
  TGI: > 100 µM
DMS 273 small cell lung
  TGI: > 100 µM
HT29 colon
  TGI: > 100 µM
UO-31 renal
  TGI: > 100 µM
UACC-62 melanoma
  TGI: > 100 µM
NCI-H522 lung
  TGI: > 100 µM
COLO 205 colon
  TGI: > 100 µM
HCT-116 colon
  TGI: > 100 µM

## CCCCCCCCCCCCCC(=O)OCC(C[As](=O)(O)O)OC(=O)CCCCCCCCCCCCC (configuration not stated)
K-562 leukemia
  TGI: > 100 µM
HOP-62 NSCLC
  TGI: > 100 µM
KM12 colon
  TGI: > 100 µM
A498 renal
  TGI: > 100 µM
EKVX NSCLC
  TGI: > 100 µM
RPMI-8226 leukemia
  TGI: > 100 µM
DLD-1 colon
  TGI: > 100 µM
OVCAR-4 ovarian
  TGI: > 100 µM
XF 498 CNS
  TGI: > 100 µM
SNB-19 CNS
  TGI: > 100 µM
HCC-2998 colon
  TGI: > 100 µM
CCRF-CEM leukemia
  TGI: > 100 µM
NCI-H23 lung
  TGI: > 100 µM
U251 CNS
  TGI: > 100 µM
CAKI-1 renal
  TGI: > 100 µM
MOLT-4 leukemia
  TGI: > 100 µM
TK-10 renal
  TGI: > 100 µM
UACC-257 melanoma
  TGI: > 100 µM
IGROV1 ovarian
  TGI: > 100 µM
RXF-631 renal
  TGI: > 100 µM
NCI-H460 lung
  TGI: > 100 µM
SN12C renal
  TGI: > 100 µM
OVCAR-3 ovarian
  TGI: > 100 µM
SF-539 CNS
  TGI: > 100 µM
NCI-H226 lung
  TGI: > 100 µM
OVCAR-8 ovarian
  TGI: > 100 µM
ACHN renal
  TGI: > 100 µM
HOP-92 NSCLC
  TGI: > 100 µM
M14 melanoma
  TGI: > 100 µM
HOP-18 NSCLC
  TGI: > 100 µM
SNB-78 CNS
  TGI: > 100 µM
SK-MEL-5 melanoma
  TGI: > 100 µM
SK-MEL-2 melanoma
  TGI: > 100 µM
RXF 393 renal
  TGI: > 100 µM
786-0 renal
  TGI: > 100 µM
SK-MEL-28 melanoma
  TGI: > 100 µM
KM20L2 colon
  TGI: > 100 µM
LXFL 529 NSCLC
  TGI: > 100 µM
SNB-75 CNS
  TGI: > 100 µM
A549 NSCLC
  TGI: > 100 µM
SW-620 colon
  TGI: 47 µM
SK-OV-3 ovarian
  TGI: > 100 µM
DMS 114 small cell lung
  TGI: > 100 µM
HCT-15 colon
  TGI: > 100 µM
MALME-3M melanoma
  TGI: > 100 µM
SF-268 CNS
  TGI: > 100 µM
DMS 273 small cell lung
  TGI: > 100 µM
SR leukemia
  TGI: > 100 µM
HT29 colon
  TGI: > 100 µM
UO-31 renal
  TGI: > 100 µM
UACC-62 melanoma
  TGI: > 100 µM
NCI-H522 lung
  TGI: > 100 µM
HCT-116 colon
  TGI: > 100 µM

## O=C1c2ccccc2C(=O)N1CCn1ccc(NC(c2ccccc2)(c2ccccc2)c2ccccc2)nc1=O
K-562 leukemia
  TGI: 63.8 µM
HOP-62 NSCLC
  TGI: 33 µM
KM12 colon
  TGI: 49.1 µM
A498 renal
  TGI: 38.6 µM
OVCAR-5 ovarian
  TGI: 62.6 µM
EKVX NSCLC
  TGI: > 100 µM
RPMI-8226 leukemia
  TGI: 51.3 µM
DLD-1 colon
  TGI: 38.9 µM
OVCAR-4 ovarian
  TGI: 59.2 µM
XF 498 CNS
  TGI: 30.3 µM
SNB-19 CNS
  TGI: 86.1 µM
HCC-2998 colon
  TGI: 37.7 µM
M19-MEL melanoma
  TGI: 32.6 µM
CCRF-CEM leukemia
  TGI: 59.3 µM
NCI-H23 lung
  TGI: 60.2 µM
U251 CNS
  TGI: 32.3 µM
CAKI-1 renal
  TGI: > 100 µM
MOLT-4 leukemia
  TGI: 43 µM
TK-10 renal
  TGI: 69.5 µM
UACC-257 melanoma
  TGI: 34.7 µM
IGROV1 ovarian
  TGI: 58.4 µM
RXF-631 renal
  TGI: 40.4 µM
HL-60(TB) leukemia
  TGI: 44.2 µM
NCI-H460 lung
  TGI: 65.5 µM
SN12C renal
  TGI: 83 µM
OVCAR-3 ovarian
  TGI: 65.8 µM
SF-539 CNS
  TGI: 30.6 µM
NCI-H226 lung
  TGI: 34.1 µM
LOX IMVI melanoma
  TGI: 31.8 µM
OVCAR-8 ovarian
  TGI: > 100 µM
ACHN renal
  TGI: 92.7 µM
HOP-92 NSCLC
  TGI: 53.3 µM
M14 melanoma
  TGI: 43 µM
HOP-18 NSCLC
  TGI: 42.6 µM
SNB-78 CNS
  TGI: > 100 µM
SK-MEL-5 melanoma
  TGI: 31.2 µM
SK-MEL-2 melanoma
  TGI: 43.2 µM
RXF 393 renal
  TGI: 35.5 µM
786-0 renal
  TGI: > 100 µM
SK-MEL-28 melanoma
  TGI: 32.1 µM
KM20L2 colon
  TGI: 27.5 µM
LXFL 529 NSCLC
  TGI: > 100 µM
SNB-75 CNS
  TGI: 74 µM
A549 NSCLC
  TGI: > 100 µM
SW-620 colon
  TGI: > 100 µM
SF-295 CNS
  TGI: 28.8 µM
SK-OV-3 ovarian
  TGI: > 100 µM
DMS 114 small cell lung
  TGI: 50 µM
HCT-15 colon
  TGI: 62.6 µM
MALME-3M melanoma
  TGI: 43.2 µM
SF-268 CNS
  TGI: 45.3 µM
DMS 273 small cell lung
  TGI: 36.6 µM
HT29 colon
  TGI: 30.5 µM
UO-31 renal
  TGI: 52.8 µM
UACC-62 melanoma
  TGI: 26 µM
NCI-H522 lung
  TGI: 45.9 µM
COLO 205 colon
  TGI: 31.4 µM
HCT-116 colon
  TGI: 32.4 µM
